Experimental data reported in ChEMBL document CHEMBL1137396, “Discovery of (1R,5S)-N-[3-amino-1-(cyclobutylmethyl)-2,3-dioxopropyl]- 3-[2(S)-[[[(1,1-dimethylethyl)amino]carbonyl]amino]-3,3-dimethyl-1-oxobutyl]- 6,6-dimethyl-3-azabicyclo[3.1.0]hexan-2(S)-carboxamide (SCH 503034), a selective, potent, orally bioavailable hepatitis C virus NS3 protease …” (J Med Chem, 2006).

Columns and labels:
NS3 = NS3 (Hepatitis C virus, UniProt A3EZJ3); test: Binding affinity at HCV NS3 protease; parameters: species or system Hepatitis C virus subtype 1b
Sequence of NS3 (A3EZJ3 whole entry): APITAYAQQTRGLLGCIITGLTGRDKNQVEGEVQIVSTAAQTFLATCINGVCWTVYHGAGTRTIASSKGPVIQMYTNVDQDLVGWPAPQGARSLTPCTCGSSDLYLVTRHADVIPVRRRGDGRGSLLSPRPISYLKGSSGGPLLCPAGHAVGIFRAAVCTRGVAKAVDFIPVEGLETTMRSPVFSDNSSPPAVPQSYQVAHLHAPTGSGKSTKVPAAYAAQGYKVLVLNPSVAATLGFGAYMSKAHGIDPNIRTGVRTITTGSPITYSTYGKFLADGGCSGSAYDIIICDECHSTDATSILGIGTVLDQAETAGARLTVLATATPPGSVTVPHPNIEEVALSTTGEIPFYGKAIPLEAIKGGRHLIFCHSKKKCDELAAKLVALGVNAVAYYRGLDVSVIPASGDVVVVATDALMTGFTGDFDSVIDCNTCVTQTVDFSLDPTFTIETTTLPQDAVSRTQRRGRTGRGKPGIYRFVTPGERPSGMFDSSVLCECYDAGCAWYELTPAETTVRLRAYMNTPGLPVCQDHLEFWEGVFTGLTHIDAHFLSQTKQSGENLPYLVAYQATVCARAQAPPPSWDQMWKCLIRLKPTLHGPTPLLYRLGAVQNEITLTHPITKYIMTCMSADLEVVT

[1] = Bioavailability in rat at 10 mg/kg, po; type: ADME, organism-based; conditions: in vivo
Hepatocyte = test: Inhibition of HCV replication in hepatocytes measured by cellular replicon assay; type: functional; conditions: Hepatitis C virus
Huh-5-2 = test: Cytotoxicity against hepatoma cell line containing HCV replicon measured as change in GAPDH RNA level; type: functional, Homo sapiens
[2] = Bioavailability in monkey at 2 mg/kg, po; conditions: rhesus monkey, in vivo
[3] = AUC in rat at 10 mg/kg, po; type: ADME, organism-based; parameters: dose 10 mg/kg, route oral; conditions: plasma
[4] = Bioavailability in dog at 2 mg/kg, po; type: ADME, organism-based, Canis lupus familiaris; conditions: in vivo
[5] = AUC in monkey at 2 mg/kg, po; conditions: rhesus monkey, plasma
[6] = AUC in dog at 2 mg/kg, po; type: ADME, organism-based, Canis lupus familiaris; parameters: dose 2 mg/kg, route oral; conditions: plasma
[7] = Selectivity for human neutrophil elastase (HNE) over HCV NS3 protease
[8] = AUC in dog at 3 mg/kg, po; type: ADME, organism-based, Canis lupus familiaris; parameters: dose 3 mg/kg, route oral; conditions: plasma
[9] = AUC in monkey at 3 mg/kg, po; conditions: rhesus monkey, plasma
[10] = Bioavailability in dog at 3 mg/kg, po; type: ADME, organism-based, Canis lupus familiaris; conditions: in vivo
[11] = Bioavailability in monkey at 3 mg/kg, po; conditions: rhesus monkey, in vivo
[12] = Bioavailability in mouse; type: ADME, organism-based; conditions: in vivo
[13] = Ratio of drug level in liver against plasma in rat; type: ADME, organism-based

Structure (SMILES)	Ki (NS3) [nM]	bioavailability [1] [%]	EC90 (Hepatocyte) [nM]	Activity (Huh-5-2) [µM]	bioavailability [2] [%]	AUC [3] [µM·h]	bioavailability [4] [%]	AUC [5] [µM·h]	AUC [6] [µM·h]	Selectivity ratio [7]	AUC [8] [µM·h]	AUC [9] [µM·h]	bioavailability [10] [%]	bioavailability [11] [%]	bioavailability [12] [%]	Kp [13]
CC(C)(C)NC(=O)N[C@H](C(=O)N1C[C@H]2[C@@H]([C@H]1C(=O)NC(CC1CC1)C(=O)C(N)=O)C2(C)C)C(C)(C)C (stereo not given in full)	13	16	400	>5	2	1	36	0.05	1.6	369						
CC(C)(C)NC(=O)N[C@H](C(=O)N1C[C@H]2[C@@H]([C@H]1C(=O)NC(CC1CCC1)C(=O)C(N)=O)C2(C)C)C(C)(C)C (stereo not given in full) [BOCEPREVIR]	14	26	350	>5		1.52				2200	3.08	0.12	30	4	34	30
CC(C)(C)OC(=O)N[C@H](C(=O)N1C[C@H]2[C@@H]([C@H]1C(=O)NC(CC1CCC1)C(=O)C(N)=O)C2(C)C)C1CCCCC1 (stereo not given in full)	8	28	700	>5		1.5				138		0.11		1		
